Values of other authors in patent US7867716B2 (priority 2004, dated 2011).

Tests used:
WT-αHL = WT-αHL (Staphylococcus aureus, UniProt P09616)
glucoamylase = glucoamylase (Aspergillus niger, UniProt P69328)
glucoamylase, sequence (P69328 25-640 limits assumed): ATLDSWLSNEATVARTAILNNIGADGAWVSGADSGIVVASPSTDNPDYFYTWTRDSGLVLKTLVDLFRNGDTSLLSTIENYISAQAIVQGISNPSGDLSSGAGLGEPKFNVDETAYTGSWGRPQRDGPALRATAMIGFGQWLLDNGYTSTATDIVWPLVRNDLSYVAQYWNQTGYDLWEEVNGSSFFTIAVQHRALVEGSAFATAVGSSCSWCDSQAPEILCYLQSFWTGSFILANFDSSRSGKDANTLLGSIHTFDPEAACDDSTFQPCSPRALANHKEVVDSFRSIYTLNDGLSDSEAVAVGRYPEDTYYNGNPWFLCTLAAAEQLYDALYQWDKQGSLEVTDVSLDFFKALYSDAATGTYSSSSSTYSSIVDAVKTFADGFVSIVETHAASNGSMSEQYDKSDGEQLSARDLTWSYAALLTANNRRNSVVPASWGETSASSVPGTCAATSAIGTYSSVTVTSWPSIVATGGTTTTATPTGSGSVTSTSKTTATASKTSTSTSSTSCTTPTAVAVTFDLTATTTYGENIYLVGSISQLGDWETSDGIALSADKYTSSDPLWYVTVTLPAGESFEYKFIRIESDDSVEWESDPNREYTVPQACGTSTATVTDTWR

WT-αHL, sequence (P09616 27-319 limits assumed): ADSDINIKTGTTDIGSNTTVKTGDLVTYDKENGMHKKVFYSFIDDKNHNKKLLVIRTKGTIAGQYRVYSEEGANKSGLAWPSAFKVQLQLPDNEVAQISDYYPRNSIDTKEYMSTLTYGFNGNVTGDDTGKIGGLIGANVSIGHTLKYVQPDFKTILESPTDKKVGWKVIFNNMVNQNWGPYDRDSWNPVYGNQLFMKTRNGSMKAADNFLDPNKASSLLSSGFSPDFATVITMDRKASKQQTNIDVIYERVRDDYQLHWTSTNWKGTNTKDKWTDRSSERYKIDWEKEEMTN

β-cyclodextrin [βCD]
Kf (trans) (WT-αHL): 300 M⁻¹
formation constant Kf for WT-αHL with βCD (WT-αHL): 290 M⁻¹
ΔS° (glucoamylase): −90 J mol^−1 K^−1
